Results published in US5863946A, “Iminoxyderivatives of fenamates as inhibitors of prostaglandin biosynthesis” (Abbott Laboratories, priority 1996, dated 1999).

Key:
[1] = system: prostaglandin endoperoxide H synthase 1 (PGHS-1); settings: reported in literature; cited from earlier work
[2] = system: prostaglandin endoperoxide H synthase 2 (PGHS-2); settings: reported in literature; cited from earlier work
recombinant human PGHS-2 = assay: Inhibition of PGE2 production by recombinant human PGHS-2 (microsomes, baculovirus/Sf9; EIA); assay type: biochemical; settings: human recombinant PGHS-2, 60 min preincubation, 10 μM arachidonic acid, 2.5 min
Method: (§1) Inhibition of prostaglandin biosynthesis was evaluated in recombinant human PGHS-1 and PGHS-2 enzyme assays. Representative compounds dissolved in DMSO (3.3% v/v) were preincubated with microsomes from recombinant human PGHS-1 or PGHS-2 expressed in the baculovirus/Sf9 cell system (Gierse, J. K., Hauser, […]., and Seibert, K. […] The reaction was allowed to run for 2.5 minutes at room temperature prior to quenching with HCl and neutralization with NaOH. PGE2 production in the presence and absence of the drug was determined by EIA analysis. The EIA was conducted in 96 well microtiter plates (Nunc Roskilde, Denmark) and optical density measured using a microplate reader (Vmax, Molecular Devices Corp., Menlo Park, Calif.). EIA reagents for prostaglandin determination were purchased from Perseptive Diagnostics, Cambridge, Mass. PGE2 levels were measured against standards prepared in the same milieu. The immunoassays were conducted as recommended by the manufacturer.

recombinant human PGHS-1 = target: T1, recombinant human PGHS-1 (Homo sapiens, UniProt P23219); assay: Inhibition of PGE2 production by recombinant human PGHS-1 (microsomes, baculovirus/Sf9; EIA); assay type: biochemical; settings: human recombinant PGHS-1; 60 min preincubation; 10 μM arachidonic acid, 2.5 min
T1 construct: made in house; host or cells: baculovirus/Sf9 insect cells (microsomes)
T1 sequence (P23219 24-599): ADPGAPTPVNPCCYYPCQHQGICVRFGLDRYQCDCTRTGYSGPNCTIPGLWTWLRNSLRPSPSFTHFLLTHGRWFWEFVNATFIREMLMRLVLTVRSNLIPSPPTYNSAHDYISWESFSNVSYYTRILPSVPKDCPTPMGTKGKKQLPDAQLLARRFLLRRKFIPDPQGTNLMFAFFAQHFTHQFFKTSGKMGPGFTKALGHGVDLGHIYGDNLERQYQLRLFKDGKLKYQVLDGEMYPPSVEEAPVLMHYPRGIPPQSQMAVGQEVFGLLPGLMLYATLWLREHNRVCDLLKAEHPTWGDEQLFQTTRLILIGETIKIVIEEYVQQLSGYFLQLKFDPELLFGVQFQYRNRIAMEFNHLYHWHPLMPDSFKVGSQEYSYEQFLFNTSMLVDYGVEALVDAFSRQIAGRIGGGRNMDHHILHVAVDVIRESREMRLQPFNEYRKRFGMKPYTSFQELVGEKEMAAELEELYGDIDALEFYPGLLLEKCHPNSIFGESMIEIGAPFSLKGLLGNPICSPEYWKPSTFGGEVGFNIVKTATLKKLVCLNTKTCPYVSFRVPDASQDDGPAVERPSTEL
Method: as §1

SMILES	inhibition of PGHS-1 [1]	inhibition of PGHS-2 [2]	PGHS-2 % Inhibition (recombinant human PGHS-2; @ 0.1 μM) [%]	IC50 (recombinant human PGHS-1) [µM]	PGHS-2 % Inhibition (recombinant human PGHS-2; @ 1.0 μM) [%]
COc1ccc2cc([C@H](C)C(=O)O)ccc2c1 [naproxen]	inhibit both isozymes	inhibit both isozymes			
CC(C)Cc1ccc(C(C)C(=O)O)cc1 (stereo not shown) [ibuprofen]	inhibit both isozymes	inhibit both isozymes			
Cc1ccc(Cl)c(Nc2ccccc2CON=CC(=O)O)c1Cl [Example 1, glyoxylic acid-O-[2-(2,6-dichloro-3-methylphenylamino)phenylmethyl] oxime]			68	6	
Cc1ccc(Cl)c(Nc2ccccc2C(=O)O)c1Cl [Meclofenamic acid]	inhibit both PGHS-1 and PGHS-2	inhibit both PGHS-1 and PGHS-2			
CC(=NOCc1ccccc1Nc1c(Cl)ccc(C)c1Cl)C(=O)O [Example 2, pyruvic acid-O-[2-[(2,6-dichloro-3-methylphenyl)amino]phenylmethyl] oxime]				61.1	28
